Measurements published in patent publication US11548850B2, “Development of a cofilin inhibitor for the treatment of hemorrhagic brain injury-induced neuroinflammation” (The University of Toledo, priority 2019, dated 2023).

Biological target: cofilin (Homo sapiens, UniProt P23528)
Assay: Cofilin inhibition by the compound still protected on one side (no method given)
Settings: one side of the Formula I structure still protected (TBS)

Chain of cofilin (P23528 whole entry): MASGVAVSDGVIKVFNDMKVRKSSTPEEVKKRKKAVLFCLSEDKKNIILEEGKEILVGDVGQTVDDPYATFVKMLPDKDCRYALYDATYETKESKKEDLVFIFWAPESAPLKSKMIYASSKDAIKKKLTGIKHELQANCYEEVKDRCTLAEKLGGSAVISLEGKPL

Compound: CC(C)(C)c1ccc(O)c(CN(Cc2cc(C(C)(C)C)ccc2O[Si](C)(C)C(C)(C)C)C2CCC(NC(N)=O)CC2)c1 (stereo not shown) [SZ-2]
- cofilin inhibition: still works to inhibit cofilin
